Reference: PubChem BioAssay AID330 (DTP/NCI, 2004)
Several values for one entry are separate records, joined by “and”; a condition that tells them apart may be missing. Equal values may be shown once. Inconclusive results and toxic doses are left out. Rule for the calls: active = survival T/C of 150% or more; inactive = T/C below 125% in these data. Peptide text beside a SMILES is read from it. * marks the point of attachment. OtBu = CC(C)(C)O*

Test system: P388 leukemia ip, CD2F1 mice, survival T/C
Assay: NCI In Vivo Anticancer Drug Screen. Data for tumor model P388 Leukemia (intraperitoneal) in CD2F1 (CDF1) mice
Details: endpoint: median survival time, higher = longer survival
Procedure, shortened: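 Mice carrying the transplanted tumor received test compound or vehicle. Survival was recorded in each group, and the value is the treated-group measurement divided by that of the vehicle-treated control group.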

[1] = dose: 50.0 mg/kg/injection, schedule: Q01DX009 (ip), vehicle: saline with Tween-80
[2] = dose: 100.0 mg/kg/injection, schedule: Q01DX009 (ip), vehicle: saline with Tween-80
[3] = dose: 50.0 mg/kg/injection, schedule: Q01DX005 (ip), vehicle: saline with Tween-80
[4] = dose: 100.0 mg/kg/injection, schedule: Q01DX005 (ip), vehicle: saline with Tween-80
[5] = dose: 200.0 mg/kg/injection, schedule: Q01DX005 (ip), vehicle: saline with Tween-80
[6] = dose: 50.0 mg/kg/injection, schedule: Q01DX005 (ip), vehicle: Klucel (hydroxypropylcellulose) (HPC)
[7] = dose: 100.0 mg/kg/injection, schedule: Q01DX005 (ip), vehicle: Klucel (hydroxypropylcellulose) (HPC)
[8] = dose: 200.0 mg/kg/injection, schedule: Q01DX005 (ip), vehicle: Klucel (hydroxypropylcellulose) (HPC)
[9] = dose: 50.0 mg/kg/injection, schedule: Q01DX009 (ip), vehicle: suspension in saline
[10] = dose: 100.0 mg/kg/injection, schedule: Q01DX009 (ip), vehicle: suspension in saline
[11] = dose: 200.0 mg/kg/injection, schedule: Q01DX009 (ip), vehicle: suspension in saline
[12] = dose: 25.0 mg/kg/injection, schedule: Q01DX005 (ip), vehicle: saline with Tween-80
[13] = dose: 25.0 mg/kg/injection, schedule: Q04DX003 (ip), vehicle: Klucel (hydroxypropylcellulose) (HPC)
[14] = dose: 50.0 mg/kg/injection, schedule: Q04DX003 (ip), vehicle: Klucel (hydroxypropylcellulose) (HPC)

Measured: T/C

CCCCCCCCCCCCCCCCSc1ccc(N=Cc2ccc(N(CC)CC#N)cc2)cc1
inactive: [1] 97 % of control | [2] 94 % of control

CCc1c(O)c(C(C)=O)c(S)[nH]c1=O
inactive: dose: 60.0 mg/kg/injection, schedule: Q01DX005 (ip), vehicle: Klucel (hydroxypropylcellulose) (HPC) 101 % of control and 88 % of control | dose: 120.0 mg/kg/injection, schedule: Q01DX005 (ip), vehicle: Klucel (hydroxypropylcellulose) (HPC) 102 % of control | dose: 240.0 mg/kg/injection, schedule: Q01DX005 (ip), vehicle: Klucel (hydroxypropylcellulose) (HPC) 114 % of control and 87 % of control

CC(CO)NC(=O)C1C=C2c3cccc4[nH]cc(c34)CC2N(C)C1 (stereo not drawn)
inactive: dose: 9.0 mg/kg/injection, schedule: Q01DX009 (ip), vehicle: saline 97 % of control | dose: 18.0 mg/kg/injection, schedule: Q01DX009 (ip), vehicle: saline 91 % of control | dose: 44.5 mg/kg/injection, schedule: Q01DX009 (ip), vehicle: saline 97 % of control | dose: 89.0 mg/kg/injection, schedule: Q01DX009 (ip), vehicle: saline 97 % of control | dose: 178.0 mg/kg/injection, schedule: Q01DX009 (ip), vehicle: saline 106 % of control

Cc1cc(C)nc(NN=O)c1
inactive: dose: 3.12 mg/kg/injection, schedule: Q01DX009 (ip), vehicle: water 104 % of control and 112 % of control | dose: 6.25 mg/kg/injection, schedule: Q01DX009 (ip), vehicle: water 121 % of control | dose: 12.5 mg/kg/injection, schedule: Q01DX009 (ip), vehicle: water 121 % of control | dose: 50.0 mg/kg/injection, schedule: Q01DX009 (ip), vehicle: water 95 % of control

COc1ccccc1/C=C\C1=CC(=O)CC(c2ccccc2OC)C1C (stereo not drawn)
inactive: dose: 50.0 mg/kg/injection, schedule: Q01DX001 (ip), vehicle: Klucel (hydroxypropylcellulose) (HPC) 104 % of control | dose: 100.0 mg/kg/injection, schedule: Q01DX001 (ip), vehicle: Klucel (hydroxypropylcellulose) (HPC) 100 % of control | dose: 200.0 mg/kg/injection, schedule: Q01DX001 (ip), vehicle: Klucel (hydroxypropylcellulose) (HPC) 91 % of control

C=CCN1C(=O)CCN(S(=O)(=O)c2ccc(-n3nc(C(=O)O)cc3C)cc2)C1=S
inactive: [3] 103 % of control | [4] 107 % of control | [5] 99 % of control

CC(=O)Oc1ccccc1O
inactive: dose: 25.0 mg/kg/injection, schedule: Q01DX009 (ip), vehicle: saline + Tween-80 + alcohol 106 % of control | dose: 50.0 mg/kg/injection, schedule: Q01DX009 (ip), vehicle: saline + Tween-80 + alcohol 101 % of control and 105 % of control and 116 % of control | dose: 100.0 mg/kg/injection, schedule: Q01DX009 (ip), vehicle: saline + Tween-80 + alcohol 109 % of control and 115 % of control

IP1c2ccccc2P2P(I)c3ccccc3P12 (stereo not drawn)
inactive: [6] 102 % of control | [7] 108 % of control | [8] 105 % of control

CC(C)(C)Oc1ccc(CC(NC(=O)OCC2c3ccccc3-c3ccccc32)C(=O)O)cc1 (stereo not drawn)
inactive: dose: 25.0 mg/kg/injection, schedule: Q01DX005 (ip), vehicle: Klucel (hydroxypropylcellulose) (HPC) 107 % of control | [6] 107 % of control and 109 % of control | [7] 120 % of control | [8] 104 % of control and 120 % of control

CC(=O)N(c1nc2ccccc2n1C)C(C)C
inactive: dose: 25.0 mg/kg/injection, schedule: Q01DX009 (ip), vehicle: saline with Tween-80 110 % of control | [1] 98 % of control | [2] 115 % of control

CC(C)CC(NC(=O)C1CCCN1)C(=O)NC(CC(C)C)C(=O)OC(C)(C)C (stereo not drawn) (H-Pro-Leu-Leu-OtBu; configuration not given here)
inactive: [6] 102 % of control | [7] 99 % of control | [8] 96 % of control

C1=CN2C(c3ccccc3)=NON(c3ncccn3)C2N=C1 (stereo not drawn)
inactive: dose: 60.0 mg/kg/injection, schedule: Q01DX005 (ip), vehicle: saline with Tween-80 96 % of control | dose: 120.0 mg/kg/injection, schedule: Q01DX005 (ip), vehicle: saline with Tween-80 91 % of control | dose: 240.0 mg/kg/injection, schedule: Q01DX005 (ip), vehicle: saline with Tween-80 90 % of control

CCOc1nc(N)nc(C)c1N=Nc1cccc(Cl)c1
inactive: dose: 60.0 mg/kg/injection, schedule: Q01DX005 (ip), vehicle: Klucel + Tween-80 101 % of control | dose: 120.0 mg/kg/injection, schedule: Q01DX005 (ip), vehicle: Klucel + Tween-80 107 % of control | dose: 240.0 mg/kg/injection, schedule: Q01DX005 (ip), vehicle: Klucel + Tween-80 100 % of control

CN(C)/C=C/c1ccc([N+](=O)[O-])o1
inactive: [9] 100 % of control | [10] 104 % of control | [11] 118 % of control

O=S(=O)(F)C(Br)(Br)S(=O)(=O)F
inactive: [6] 97 % of control | [7] 97 % of control

CC(C)N1C(=O)N(Cl)C2C1N(Cl)C(=O)N2Cl (stereo not drawn)
inactive: [12] 99 % of control | [3] 108 % of control and 122 % of control | [4] 122 % of control | [5] 113 % of control and 117 % of control

O=C1CSC(=S)N1c1ccc(F)cc1
inactive: [9] 106 % of control | [10] 100 % of control | [11] 90 % of control

CN1C(=O)C(O)N=C(c2ccccc2)c2cc(Cl)ccc21 (stereo not drawn)
inactive: [1] 101 % of control | [2] 105 % of control | dose: 200.0 mg/kg/injection, schedule: Q01DX009 (ip), vehicle: saline with Tween-80 117 % of control

Nc1nc(N)c2c(ccc3nc(-c4ccccc4)c(-c4ccccc4)nc32)n1
inactive: dose: 100.0 mg/kg/injection, schedule: Q01DX001 (ip), vehicle: saline with Tween-80 87 % of control | dose: 200.0 mg/kg/injection, schedule: Q01DX001 (ip), vehicle: saline with Tween-80 90 % of control

Cc1cc(C=C2C(=O)NC(=S)NC2=O)cc(C)c1O
inactive: dose: 12.5 mg/kg/injection, schedule: Q01DX005 (ip), vehicle: saline with Tween-80 101 % of control and 96 % of control and 97 % of control | [12] 105 % of control and 106 % of control and 118 % of control

CC(=O)NCCc1ccc2c(c1)OCO2
inactive: dose: 25.0 mg/kg/injection, schedule: Q01DX001 (ip), vehicle: saline + alcohol 105 % of control | dose: 50.0 mg/kg/injection, schedule: Q01DX001 (ip), vehicle: saline + alcohol 99 % of control | dose: 100.0 mg/kg/injection, schedule: Q01DX001 (ip), vehicle: saline + alcohol 98 % of control

CCN(CC)C(=S)SS(C)(=O)=O
inactive: [13] 99 % of control | [14] 107 % of control | dose: 100.0 mg/kg/injection, schedule: Q04DX003 (ip), vehicle: Klucel (hydroxypropylcellulose) (HPC) 107 % of control

CN1C=CC=CC1=C1C(=O)c2ccccc2C1=O
inactive: [6] 96 % of control | [7] 104 % of control | [8] 107 % of control

O=Nc1ccc(Cl)cc1
inactive: dose: 12.5 mg/kg/injection, schedule: Q04DX003 (ip), vehicle: Klucel (hydroxypropylcellulose) (HPC) 103 % of control | [13] 101 % of control | [14] 93 % of control

O=C(COP(=O)(OCC(=O)Oc1ccc([N+](=O)[O-])cc1)Oc1ccc([N+](=O)[O-])cc1)Oc1ccc([N+](=O)[O-])cc1
inactive: dose: 25.0 mg/kg/injection, schedule: Q01DX009 (ip), vehicle: other 102 % of control | dose: 50.0 mg/kg/injection, schedule: Q01DX009 (ip), vehicle: other 98 % of control | dose: 100.0 mg/kg/injection, schedule: Q01DX009 (ip), vehicle: other 93 % of control | dose: 200.0 mg/kg/injection, schedule: Q01DX009 (ip), vehicle: other 91 % of control | dose: 400.0 mg/kg/injection, schedule: Q01DX009 (ip), vehicle: other 108 % of control
